Reference: patent US20240279278A1, “NMU RECEPTOR 2 AGONISTS” (Boehringer Ingelheim International GmbH, priority 2023, published 2024)
Residues, ends and D or L forms follow the SMILES beside them.

Tests used:
human NMUR2 receptor [1] = target: T1, human NMUR2 receptor (Homo sapiens, UniProt Q9GZQ4); assay: Radioligand binding competition assay (RLB), human NMUR2 receptor binding (SPA, [125I]-Neuromedin U-25); design: host or cells: CHO-K1; conditions: CHO-K1 hNMUR2 cell membranes, 4 hours at RT
Description: Example 1: Radioligand Binding Competition Assay (RLB) Human NMUR2 Receptor Binding
The test is based on membranes prepared from a Human NMUR2/Apoaequorin Stable Cell Line (Creative Biogene, Cat. No. CSC-RG1309).
Cell Line Description: CHO-NMUR2 cell line is clonally derived from a CHO-K1 cell line, which has been transfected with a bicistronic expression plasmid containing the sequence coding for the human neuromedin U receptor 2 (AF242874.1). MOSAIC-ID: CL16550616.
Membrane preparation: Cells were broken by nitrogen cavitation (900 psi, 1 hour). Intact cells were removed by centrifugation (400 rcf (relative centrifugal force), 10 minutes, 4° C.) before the crude membrane fraction was collected by ultracentrifugation (20.000 rcf, 1 hour, 4° C.).
2) Human NMUR2 Receptor Binding Assay (Radioligand: [125I]-Neuromedin U-25 (Human))
In this Scintillation Proximity Assay (SPA) design, the membranes immobilize directly to the PVT-WGA-PEI type A beads (polyethyleneimine treated polyvinyltoluene beads coupled to wheatgerm agglutinin, Perkin Elmer) via interactions of wheat germ agglutinate and glycosylated membrane structures. Thereby the radioactively la-belled ligand, bound to NMUR2 receptors on the membrane, comes in close proximity to the solid scintillator of the PVT bead. Radioactive human neuromedin U-25 then stimulates the scintillant to emit light. In contrast, radioligand not bound to the receptor is too distant from the bead to elicit a signal.
For the Scintillation Proximity Assay the CHO-K1 hNMUR2 cell membranes and SPA-beads are diluted to concentrations, which assure a robust signal to background ratio. The SPA incubation buffer consists of 25 mM Hepes (pH=7.0), 5 mM MgCl2, 1 mM CaCl2, 10 ug/mL Saponine and 0.1% bovine serum albumin and is used for all dilutions.
Final assay setup in 96-well plate: 20 μL of 10× test compound dilutions+40 μL of 5× [125l]-Neuromedin U-25 (1× approx. 30 pM; 2000 μCi/mmol)+60 μL membrane dilution (approx. 2.5 μg membrane protein)+80 μL SPA bead dilution (0.75 mg).
The assay is incubated for 4 hours at RT, including controls for specific binding where no displacer is added and non-specific binding by adding unlabeled hNMU-25 at 100 nM. Bound radioactivity is determined by scintillation counting (MicroBeta Trilux 1450, Perkin Elmer, detection of 125I decay). […] The system assumes one binding site with no relevant radioligand depletion (<10%) and that the binding is reversible and at equilibrium.

human NMUR2 receptor [2] = target: T1, human NMUR2 receptor; assay: IP1 Gq HTRF assay, activation of human NMUR2 in human plasma; type: cell-based; design: expressed in transfected cells; host or cells: CHO-K1; conditions: CHO-K1 cells expressing human NMUR2, 100% human plasma; read-out: EC50 (hNMUR2) human plasma
Outline: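 CHO-K1 cells stably expressing human NMUR2 exposed to peptide agonists (8-point dose-response) in 100% human plasma with 50 mM LiCl, 1% DMSO, for 1 h at 37° C. IP1 accumulation read by HTRF competition (665/620 nm ratio). EC50 from 4-parameter sigmoidal fit.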

T1 sequence (Q9GZQ4 whole entry): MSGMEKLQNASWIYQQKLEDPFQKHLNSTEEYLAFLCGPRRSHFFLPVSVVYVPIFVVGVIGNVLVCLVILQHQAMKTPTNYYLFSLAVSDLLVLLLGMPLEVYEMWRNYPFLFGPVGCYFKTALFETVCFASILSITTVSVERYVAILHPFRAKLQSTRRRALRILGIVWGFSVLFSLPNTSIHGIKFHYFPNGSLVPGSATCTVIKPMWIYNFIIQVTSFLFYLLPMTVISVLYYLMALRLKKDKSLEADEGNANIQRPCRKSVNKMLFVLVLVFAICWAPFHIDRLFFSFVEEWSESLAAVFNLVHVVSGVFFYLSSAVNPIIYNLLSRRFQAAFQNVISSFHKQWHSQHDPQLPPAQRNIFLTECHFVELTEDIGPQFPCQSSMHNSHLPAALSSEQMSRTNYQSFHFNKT

Row | Structure (SMILES) | Ki (human NMUR2 receptor [1]) [nM] | EC50 (human NMUR2 receptor [2]) [nM]
1 | CCCC[C@H](NC(=O)[C@H](CC(C)C)N(C)C(=O)[C@H](Cc1ccccc1)NC(=O)[C@H](Cc1ccc(O)cc1)NC(=O)CN1CCN(CCNC(=O)CN(C)C(=O)CN(C)C(=O)CN(C)C(=O)CN(C)C(=O)CN(C)C(=O)CN(C)C(=O)CN(C)C(=O)CN(C)C(=O)CN(C)C(=O)CN(C)C(=O)CN(C)C(=O)CN(C)C(=O)CC[C@H](NC(=O)CC[C@H](NC(=O)CC[C@H](NC(=O)CCCCCCCCCCCCCCCCC(=O)O)C(=O)O)C(=O)O)C(=O)O)CC1)C(=O)N[C@@H](CCN)C(=O)N1CCC[C@H]1C(=O)N[C@@H](CCCNC(=N)N)C(=O)NCC(N)=O [Compound 27, C18DA-gGlu3-Sar12-AEPipAc-Tyr-Phe-NMeLeu-Nle-Dbu-Pro-Arg-Gly-NH2] | 23.4 | 6.9
2 | CCCC[C@H](NC(=O)[C@H](CC(C)C)N(C)C(=O)[C@H](Cc1ccccc1)NC(=O)[C@H](Cc1ccc(O)cc1)NC(=O)CN1CCN(CCNC(=O)CN(C)C(=O)CN(C)C(=O)CN(C)C(=O)CN(C)C(=O)CN(C)C(=O)CN(C)C(=O)CN(C)C(=O)CN(C)C(=O)CN(C)C(=O)CN(C)C(=O)CN(C)C(=O)CN(C)C(=O)CC[C@H](NC(=O)CC[C@H](NC(=O)CC[C@H](NC(=O)CCCCCCCCCCCCCCCCC(=O)O)C(=O)O)C(=O)O)C(=O)O)CC1)C(=O)N[C@@H](CCCNC(=N)N)C(=O)N1CCC[C@H]1C(=O)N[C@@H](CCCNC(=N)N)C(=O)NCC(N)=O [Compound 25, C18DA-gGlu3-Sar12-AEPipAc-Tyr-Phe-NMeLeu-Nle-Arg-Pro-Arg-Gly-NH2] | 23.1 | 8.6
3 | CCCC[C@H](NC(=O)[C@H](CC(C)C)N(C)C(=O)[C@H](Cc1ccccc1)NC(=O)[C@H](Cc1ccc(O)cc1)NC(=O)CN1CCN(CCNC(=O)CN(C)C(=O)CN(C)C(=O)CN(C)C(=O)CN(C)C(=O)CN(C)C(=O)CN(C)C(=O)CN(C)C(=O)CN(C)C(=O)CN(C)C(=O)CN(C)C(=O)CN(C)C(=O)CN(C)C(=O)CC[C@H](NC(=O)CC[C@H](NC(=O)CC[C@H](NC(=O)CCCCCCCCCCCCCCCCC(=O)O)C(=O)O)C(=O)O)C(=O)O)CC1)C(=O)N[C@@H](CCCN)C(=O)N(C)[C@@H](C)C(=O)N[C@@H](CCCNC(=N)N)C(=O)NCC(N)=O [Compound 20, C18DA-gGlu3-Sar12-AEPipAc-Tyr-Phe-NMeLeu-Nle-Orn-NMeAla-Arg-Gly-NH2] | 23.7 | 12.1
4 | CCCC[C@H](NC(=O)[C@H](CC(C)C)N(C)C(=O)[C@H](Cc1ccccc1)NC(=O)[C@H](Cc1ccc(O)cc1)NC(=O)CN1CCN(CCNC(=O)CN(C)C(=O)CN(C)C(=O)CN(C)C(=O)CN(C)C(=O)CN(C)C(=O)CN(C)C(=O)CN(C)C(=O)CN(C)C(=O)CN(C)C(=O)CC[C@H](NC(=O)CC[C@H](NC(=O)CC[C@H](NC(=O)CCCCCCCCCCCCCCCCC(=O)O)C(=O)O)C(=O)O)C(=O)O)CC1)C(=O)N[C@@H](CCN)C(=O)N1CCC[C@H]1C(=O)N[C@@H](CCCNC(=N)N)C(=O)NCC(N)=O [Compound 24, C18DA-gGlu3-Sar9-AEPipAc-Tyr-Phe-NMeLeu-Nle-Dbu-Pro-Arg-Gly-NH2] (HELM PEPTIDE1{[O=C(O)CCCCCCCCCCCCCCCCC(=O)[*:2]].[gGlu].[gGlu].[gGlu].[Sar].[Sar].[Sar].[Sar].[Sar].[Sar].[Sar].[Sar].[Sar].[O=C(CN1CCN(CCN[*:1])CC1)[*:2]].Y.F.[meL].[Nle].[Dab].P.R.G.[am]}$$$$V2.0) | 52.3 | 12.6
5 | CCCC[C@H](NC(=O)[C@H](CC(C)C)N(C)C(=O)[C@H](Cc1ccccc1)NC(=O)[C@H](Cc1ccc(O)cc1)NC(=O)CN1CCN(CCNC(=O)CN(C)C(=O)CN(C)C(=O)CN(C)C(=O)CN(C)C(=O)CN(C)C(=O)CN(C)C(=O)CN(C)C(=O)CN(C)C(=O)CN(C)C(=O)CN(C)C(=O)CN(C)C(=O)CN(C)C(=O)CN(C)C(=O)CN(C)C(=O)CN(C)C(=O)CC[C@H](NC(=O)CC[C@H](NC(=O)CC[C@H](NC(=O)CCCCCCCCCCCCCCCCC(=O)O)C(=O)O)C(=O)O)C(=O)O)CC1)C(=O)N[C@@H](CCCNC(=N)N)C(=O)N(C)[C@@H](C)C(=O)N[C@@H](CCCNC(=N)N)C(=O)NCC(N)=O [Compound 11, C18DA-gGlu3-Sar15-AEPipAc-Tyr-Phe-NMeLeu-Nle-Arg-NMeAla-Arg-Gly-NH2] (HELM PEPTIDE1{[O=C(O)CCCCCCCCCCCCCCCCC(=O)[*:2]].[gGlu].[gGlu].[gGlu].[Sar].[Sar].[Sar].[Sar].[Sar].[Sar].[Sar].[Sar].[Sar].[Sar].[Sar].[Sar].[Sar].[Sar].[Sar].[O=C(CN1CCN(CCN[*:1])CC1)[*:2]].Y.F.[meL].[Nle].R.[meA].R.G.[am]}$$$$V2.0) | 76.3 | 10.6
6 | CCCC[C@H](NC(=O)[C@H](CC(C)C)N(C)C(=O)[C@H](Cc1ccccc1)NC(=O)[C@H](Cc1ccc(O)cc1)NC(=O)CN1CCN(CCNC(=O)CN(C)C(=O)CN(C)C(=O)CN(C)C(=O)CN(C)C(=O)CN(C)C(=O)CN(C)C(=O)CN(C)C(=O)CN(C)C(=O)CN(C)C(=O)CN(C)C(=O)CN(C)C(=O)CN(C)C(=O)CC[C@H](NC(=O)CC[C@H](NC(=O)CC[C@H](NC(=O)CCCCCCCCCCCCCCCCC(=O)O)C(=O)O)C(=O)O)C(=O)O)CC1)C(=O)N[C@@H](CCN)C(=O)N(C)[C@@H](C)C(=O)N[C@@H](CCCNC(=N)N)C(=O)NCC(N)=O [Compound 38, C18DA-gGlu3-Sar12-AEPipAc-Tyr-Phe-NMeLeu-Nle-Dbu-NMeAla-Arg-Gly-NH2] | 33.8 | 9.7
7 | CCCC[C@H](NC(=O)[C@H](CC(C)C)N(C)C(=O)[C@H](Cc1ccccc1)NC(=O)[C@H](Cc1ccc(O)cc1)NC(=O)CN1CCN(CCNC(=O)CN(C)C(=O)CN(C)C(=O)CN(C)C(=O)CN(C)C(=O)CN(C)C(=O)CN(C)C(=O)CN(C)C(=O)CN(C)C(=O)CN(C)C(=O)CN(C)C(=O)CN(C)C(=O)CN(C)C(=O)CC[C@H](NC(=O)CC[C@H](NC(=O)CC[C@H](NC(=O)CCCCCCCCCCCCCCCCC(=O)O)C(=O)O)C(=O)O)C(=O)O)CC1)C(=O)N[C@@H](CCCNC(=N)N)C(=O)N(C)[C@@H](C)C(=O)N[C@@H](CCCNC(=N)N)C(=O)NCC(N)=O [Compound 12, C18DA-gGlu3-Sar12-AEPipAc-Tyr-Phe-NMeLeu-Nle-Arg-NMeAla-Arg-Gly-NH2] | 36.2 | 12.9
8 | CCCC[C@H](NC(=O)[C@H](CC(C)C)N(C)C(=O)[C@H](Cc1ccccc1)NC(=O)[C@H](Cc1ccc(O)cc1)NC(=O)CN1CCN(CCNC(=O)CN(C)C(=O)CN(C)C(=O)CN(C)C(=O)CN(C)C(=O)CN(C)C(=O)CN(C)C(=O)CN(C)C(=O)CN(C)C(=O)CN(C)C(=O)CN(C)C(=O)CN(C)C(=O)CN(C)C(=O)CN(C)C(=O)CN(C)C(=O)CN(C)C(=O)CC[C@H](NC(=O)CC[C@H](NC(=O)CC[C@H](NC(=O)CCCCCCCCCCCCCCCCC(=O)O)C(=O)O)C(=O)O)C(=O)O)CC1)C(=O)N[C@@H](CCN)C(=O)N(C)[C@@H](C)C(=O)N[C@@H](CCCNC(=N)N)C(=O)NCC(N)=O [Compound 23, C18DA-gGlu3-Sar15-AEPipAc-Tyr-Phe-NMeLeu-Nle-Dbu-NMeAla-Arg-Gly-NH2] (HELM PEPTIDE1{[O=C(O)CCCCCCCCCCCCCCCCC(=O)[*:2]].[gGlu].[gGlu].[gGlu].[Sar].[Sar].[Sar].[Sar].[Sar].[Sar].[Sar].[Sar].[Sar].[Sar].[Sar].[Sar].[Sar].[Sar].[Sar].[O=C(CN1CCN(CCN[*:1])CC1)[*:2]].Y.F.[meL].[Nle].[Dab].[meA].R.G.[am]}$$$$V2.0) | 38.8 | 11.1
